# Experimental data as given in paper PMC11277992, “New Zosteropenillines and Pallidopenillines from the Seagrass-Derived Fungus Penicillium yezoense KMM 4679” (Marine Drugs, 2024).
# Columns and labels:
# Candida albicans KMM 455 = test: Antimicrobial activity, microbial growth in broth (OD620); type: cell-based; settings: for inhibition of growth at 100 µM: Candida albicans, KMM455, compound at 100 µM, read-out: Inhibition of Microbial Growth, % of Control, C. albicans
# Method: (§1) The yeast-like fungus Candida albicans KMM 455 and bacterial strains Staphylococcus aureus ATCC 21027 and Escherichia coli VKPM (B-7935) (Collection of Marine Microorganisms PIBOC FEB RAS) were cultured on solid-medium Mueller–Hinton broth with agar (16.0 g/L) in a Petri dish at 37 °C for 24 h. The assays were performed in 96-well microplates in an appropriate Mueller–Hinton broth. Each well contained 90 µL of a bacterial or yeast-like fungal suspension (10^6 CFU/mL). Then, 10 µL was added of a compound diluted at concentrations from 1.5 µM to 100.0 µM using twofold dilution (DMSO concentration < 1%). Culture plates were incubated overnight at 37 °C, and the OD620 was measured using a Multiskan FC spectrophotometer (Thermo Scientific Inc., Beverly, MA, USA). The antibiotic gentamicin and antifungal agent nitrofungin were used as positive controls at 1 mg/mL; 1% DMSO in PBS served as a negative control. Examination was performed twice and in triplicate. The results were calculated as a percentage of the control data using SigmaPlot 14.0 software.
# [1] = test system: Escherichia coli VKPM (B-7935); test: as above; type: cell-based; settings: read-out: Inhibition of Microbial Growth, % of Control, E. coli; for inhibition of growth at 100 µM: compound at 100 µM
# Method: as §1
# [2] = test system: Staphylococcus aureus ATCC 21027; test: as above; type: cell-based; settings: read-out: Inhibition of Microbial Growth, % of Control, S. aureus; for inhibition of growth at 100 µM: ATCC21027, compound at 100 µM
# Method: as §1
# [3] = test system: normal human kidney cells; test: Cytotoxic activity (MTT assay); type: cell-based; settings: 100 µM, 24 h
# Method: (§2) The influence of compounds 1, 2 and 4–14 on the viability of normal human kidney […] cells, as well as human prostate PC-3, cervical HeLa and breast MCF-7 cancer cells, was measured using the MTT assay after 24 h of treatment.
# (§3) The human prostate cancer cells PC-3 and CRL-1435 and the human embryonic kidney cells HEK-293 and CRL-1573TM were purchased from the American Type Culture Collection (ATCC; Manassas, VA, USA). PC-3 and HEK-293 cells were cultured in DMEM medium containing 10% fetal bovine serum (Biolot, St. Petersburg, Russia) and 1% penicillin/streptomycin (Biolot, St. Petersburg, Russia) at 37 °C in a humidified atmosphere with 5% (v/v) CO2. The cells were incubated in cultural flasks until sub-confluent (~80%).
# (§4) PC-3 cells (5 × 10^3 cells/well) and HEK 293 cells (8 × 10^3 cells/well) were seeded in a 96-well plate and incubated overnight. Then, compounds were added at concentrations of 1–100 μM and incubated for another 24 h. Cell viability was then determined by the MTT (3-(4,5-dimethylthiazol-2-yl)-2,5-diphenyltetrazolium bromide) method according to the manufacturer’s instructions (Sigma-Aldrich, St. Louis, MO, USA). The absorbance of the converted formazan was measured using a Multiskan FC microplate photometer (Thermo Scientific, Waltham, MA, USA) at λ = 570 nm. The results are presented as percentages of the control data.
# [4] = test system: human prostate PC-3 cancer cells; test: Cytotoxic activity (MTT assay); type: cell-based; settings: 100 µM, 24 h, MTT
# Method: as §3
# as §4, with “Then, compounds were added at concentrations of 1–100 μM and incubated for another 24 h.” left out
# [5] = test system: cervical HeLa cancer cells; test: Cytotoxic activity (MTT assay); type: cell-based, human; settings: 24 h; for Cell Viability, % of Control, HeLa: 100 µM, MTT; for IC50: Homo sapiens, HeLa, read-out: IC50, HeLa cell viability
# [6] = test system: breast MCF-7 cancer cells; test: Cytotoxic activity (MTT assay); type: cell-based, human; settings: 100 µM, 24 h, MTT
# Method: as §2
# as §4, with “Then, compounds were added at concentrations of 1–100 μM and incubated for another 24 h.” left out
# [7] = test system: CoCl2-treated HEK-293 cells; test: Lipid peroxidation level (MitoCLox) in CoCl2-treated cells; type: cell-based, human; settings: MitoCLox fluorescence dye
# Method: The fluorescence probe MitoCLox (Lumiprobe, Moscow, Russia) was used for the detection of the lipid peroxidation level in CoCl2-treated cells. It was added in the cells for 1 h at a concentration of 200 nM. After 1 h, the cells were washed with PBS and fluorescence was measured in ratiometric mode with λem = 520/590 nm using a PHERAStar FS plate reader (BMG Labtech, Offenburg, Germany). The data were processed with MARS Data Analysis v. 3.01R2 (BMG Labtech, Offenburg, Germany) and calculated as a 520/590 ratio.
# [8] = test system: autophagy-related cargo protein p62; design: method as in PMID 28218691; settings: PC-3 cells; cited from earlier work
# MCF-7 cells = test: Drug combination study with doxorubicin (MTT); type: cell-based, human; settings: 24 h
SMILES,inhibition of growth at 100 µM (Candida albicans KMM 455) [%],inhibition of growth at 100 µM [1] [%],inhibition of growth at 100 µM [2] [%],"Cell Viability, % of Control, HEK-298 [3]","Cell Viability, % of Control, PC-3 [4]","Cell Viability, % of Control, HeLa [5]","Cell Viability, % of Control, MCF-7 [6]",lipid peroxide levels in CoCl2-treated HEK-293 cells [7],IC50 [5] [µM],effect on autophagy-related cargo protein p62 [8],inhibition of growth at 1000 µg/mL ([1]; positive control at 1 mg/mL) [%],"inhibition of growth at 1000 µg/mL ([2]; ATCC21027, positive control at 1 mg/mL) [%]",decrease of MCF-7 cell viability (MCF-7 cells; doxorubicin alone at 0.1 µM) [%],decrease of MCF-7 cell viability (MCF-7 cells; doxorubicin alone at 1 µM),"Inhibition of Microbial Growth, % of Control, C. albicans (Candida albicans KMM 455; positive control at 1 mg/mL)"
"CC1=C[C@H](O)[C@H]2C[C@@H](C)CC[C@@H]2[C@H]1C(=O)CCO [Compound 1, zosteropenilline M]",8.32 ± 0.62,0,30.1 ± 2.42,95.16 ± 4.01 % of Control,89.25 ± 0.44 % of Control,66.49 ± 6.19 % of Control,86.42 ± 1.76 % of Control,significantly decreased,,,,,,,
"CC1=CC(O)C2CC(C)(O)CCC2C1C(=O)CCO (stereo not drawn) [Compound 2, 11-epi-8-hydroxyzosteropenilline M]",6.12 ± 1.89,0,0,90.98 ± 2.82 % of Control,90.98 ± 2.82 % of Control,44.12 ± 5.13 % of Control,57.46 ± 1.82 % of Control,,87.3,,,,,,
"CC1(O)CCC2C(C=CC(C)(O)C2C(=O)CCO)C1 (stereo not shown) [Compound 4, 8-hydroxyzosteropenilline G]",11 ± 2.31,0,0,94.71 ± 1.53 % of Control,94.71 ± 1.53 % of Control,81.80 ± 6.76 % of Control,81.92 ± 3.92 % of Control,,,,,,,,
"CC(=O)[C@@H]1[C@H]2CC[C@@](C)(O)C[C@@H]2C=C[C@@]1(C)O [Compound 5, zosteropenilline O]",35.3 ± 1.16,0,0,85.64 ± 1.85 % of Control,91.20 ± 3.37 % of Control,37.12 ± 3.85 % of Control,77.40 ± 2.73 % of Control,significantly decreased,82.5,,,,,,
"CC(=O)[C@@H]1[C@H]2CC[C@H](CO)C[C@@H]2C=C[C@@]1(C)O [Compound 6, zosteropenilline P]",17.3 ± 2.55,0,29 ± 1.66,83.26 ± 3.78 % of Control,83.15 ± 1.72 % of Control,71.44 ± 3.99 % of Control,82.05 ± 1.31 % of Control,,,,,,,,
"CC(=O)C1C2CCC(C)C(O)C2C=CC1(C)O (stereo not shown) [Compound 7, zosteropenilline Q]",19.2 ± 3.12,0,29.9 ± 4.5,80.00 ± 0.99 % of Control,88.70 ± 1.10 % of Control,80.80 ± 3.25 % of Control,76.23 ± 4.53 % of Control,,,,,,,,
"C[C@H]1C=C[C@H]2[C@H](O)[C@@H](C)CC[C@@H]2[C@H]1C(=O)CCO [Compound 8, 13-dehydroxypallidopenilline A]",0,0,19.9 ± 1.82,86.10 ± 2.24 % of Control,83.60 ± 1.81 % of Control,72.66 ± 2.49 % of Control,81.21 ± 5.56 % of Control,,,,,,,,
"C[C@H]1CC[C@H]2C(=C[C@@H](O)[C@@](C)(O)[C@@H]2C(=O)CCO)C1 [Compound 9, zosteropenilline R]",12 ± 1.14,0,11.7 ± 1.71,96.45 ± 7.64 % of Control,96.44 ± 7.63 % of Control,79.14 ± 6.36 % of Control,79.64 ± 1.67 % of Control,significantly decreased,,,,,,,
"CC1CCC2C(C1)C(Cl)C(O)C(C)(O)C2C(=O)CCO (stereo not shown) [Compound 10, zosteropenilline S]",0,0,15.7 ± 0.36,98.10 ± 1.15 % of Control,85.98 ± 2.13 % of Control,68.69 ± 6.21 % of Control,84.85 ± 4.90 % of Control,,,,,,,,
"C[C@H]1CC[C@@H]2[C@@H](C(=O)CCO)[C@](C)(O)C=C[C@H]2C1 [Compound 11, zosteropenilline G]",18.1 ± 2.58,0,16.9 ± 4.12,93.97 ± 2.36 % of Control,93.97 ± 2.36 % of Control,34.35 ± 1.90 % of Control,81.00 ± 2.38 % of Control,,79.7,upregulators,,,,,
"C[C@H]1CC[C@H]2[C@@H](C=C[C@@](C)(O)[C@@H]2C(=O)CCO)[C@@H]1O [Compound 13, pallidopenilline A]",0,0,15.5 ± 1.35,89.76 ± 3.31 % of Control,89.76 ± 3.31 % of Control,71.85 ± 3.02 % of Control,95.05 ± 1.51 % of Control,,,,,,,,
"CNC(C)C1CCC(N)C(OC2C(N)CC(N)C(OC3OCC(C)(O)C(NC)C3O)C2O)O1 (stereo not shown) [Gentamicin, gentamicin, reference compound]",,,,,,,,,,,97.6 ± 2.1,98.6 ± 1.15,,,
"COc1cccc2c1C(=O)c1c(O)c3c(c(O)c1C2=O)C[C@@](O)(C(=O)CO)C[C@@H]3O[C@H]1C[C@H](N)[C@H](O)[C@H](C)O1 [doxorubicin, reference compound]",,,,,,,,,,,,,30,approximately 60%,
"O=[N+]([O-])c1ccc(O)c(Cl)c1 [nitrofungin, reference compound]",,,,,,,,,,,,,,,98.13 ± 0.69 % of Control
C[C@H]1CC[C@H]2[C@@H](C=C[C@]3(C)OCCC(=O)[C@H]23)[C@@H]1O [zosteropenilline A],,,,,,,,,,upregulators,,,,,
C[C@@]1(O)CC[C@@H]2[C@H]3C(=O)CCO[C@@]3(C)C=C[C@H]2C1 [zosteropenilline C],,,,,,,,,,upregulators,,,,,
